Consider 20 compounds from patent publication US8415351B2 (priority 2007, dated 2013).

Assay [1] has as its target T1, HCV polymerase 1A (Δ21 NS5B, H77) (Hepatitis C virus genotype 1a, UniProt P27958).
T1 construct: 20 to 50 nM Δ21 NS5B
The assay can be described thus: biochemical. Here is the method: (§1) HCV Polymerase Inhibition Assay
The reaction was initiated by the addition of 20 μM CTP, 20 μM ATP, 1 μM ^3H-UTP (10 mCi/umol), 5 nM template RNA and 0.1 U/μl RNase inhibitor (RNasin, Promega), and allowed to proceed for 2 to 4 h at room temperature. Reaction volume was 50 μl. The reaction was terminated by the addition of 1 volume of 4 mM spermine in 10 mM Tris-Cl pH 8.0, 1 mM EDTA. After incubation for at least 15 min at room temperature, the precipitated RNA was captured by filtering through a GF/B filter (Millipore) in a 96 well format. The filter plate was washed three times with 200 μl each of 2 mM spermine, 10 mM Tris-Cl pH 8.0, 1 mM EDTA, and 2 times with ethanol. After air-drying, 30 μl of Microscint 20 scintillation cocktail (Packard) was added to each well, and the retained cpm were determined by scintillation counting. […] Retained cpm were plotted vs. inhibitor concentration and fit to equation 1 using non-linear regression (ref. 1) to obtain the IC50 values: Retained cpm=A[sqrt{(IC50+It−Et)^2+4*IC50*Et}−(IC50+It−Et)]
Ref. Morrison, J. F. and S. R. Stone. […] Approaches to the study and analysis of the inhibition of enzymes by slow- and tight-binding inhibitors. Comments Mol. Cell. Biophys.
The sequence of the template RNA used was: 5′-[…]

Assay [2] addresses T2, HCV polymerase 1B (Δ21 NS5B, BK) (Hepatitis C virus genotype 1b, UniProt P26663).
T2 construct: 20 to 50 nM Δ21 NS5B
As to the kind of experiment: biochemical. On the procedure:
as §1
Either two-fold serial dilutions (fractional inhibition assay) or a narrower range of dilutions spanning the IC50 of the inhibitor (tight binding assay) of the inhibitors were incubated with 20 mM Tris-Cl pH 7.4, 2 mM MnCl2, 1 mM dithiothreitol, 1 mM ethylene diamine tetraacetic acid (EDTA), 60 to 125 μM GTP and 20 to 50 nM Δ21 NS5B (HCV Strain 1B (BK, Genbank accession number M58335, or H77, Genbank accession number AF011751)) for 15 min at room temperature. The reaction was initiated by the addition of 20 μM CTP, 20 μM ATP, 1 μM ^3H-UTP (10 mCi/umol), 5 nM template RNA and 0.1 U/μl RNase inhibitor (RNasin, Promega), and allowed to proceed for 2 to 4 h at room temperature. Reaction volume was 50 μl. The reaction was terminated by the addition of 1 volume of 4 mM spermine in 10 mM Tris-Cl pH 8.0, 1 mM EDTA. After incubation for at least 15 min at room temperature, the precipitated RNA was captured by filtering through a GF/B filter (Millipore) in a 96 well format. The filter plate was washed three times with 200 μl each of 2 mM spermine, 10 mM Tris-Cl pH 8.0, 1 mM EDTA, and 2 times with ethanol. After air-drying, 30 μl of Microscint 20 scintillation cocktail (Packard) was added to each well, and the retained cpm were determined by scintillation counting. […] Retained cpm were plotted vs. inhibitor concentration and fit to equation 1 using non-linear regression (ref. 1) to obtain the IC50 values: Retained cpm=A[sqrt{(IC50+It−Et)^2+4*IC50*Et}−(IC50+It−Et)]
Ref. Morrison, J. F. and S. R. Stone. 1985. Approaches to the study and analysis of the inhibition of enzymes by slow- and tight-binding inhibitors. Comments Mol. Cell. Biophys. 2: 347-368.
The sequence of the template RNA used was: 5′-[…] […] […] […] […] […] […] […] […] […] […] […] […] […] […] […] […]-3′ (SEQ ID NO: 1)

Usually IC50 stands for the point on the concentration scale where inhibition reaches its midpoint.

Where two headings read alike, the source gives them in different places.

T2 sequence (P26663 2420-2989, stated change not applied): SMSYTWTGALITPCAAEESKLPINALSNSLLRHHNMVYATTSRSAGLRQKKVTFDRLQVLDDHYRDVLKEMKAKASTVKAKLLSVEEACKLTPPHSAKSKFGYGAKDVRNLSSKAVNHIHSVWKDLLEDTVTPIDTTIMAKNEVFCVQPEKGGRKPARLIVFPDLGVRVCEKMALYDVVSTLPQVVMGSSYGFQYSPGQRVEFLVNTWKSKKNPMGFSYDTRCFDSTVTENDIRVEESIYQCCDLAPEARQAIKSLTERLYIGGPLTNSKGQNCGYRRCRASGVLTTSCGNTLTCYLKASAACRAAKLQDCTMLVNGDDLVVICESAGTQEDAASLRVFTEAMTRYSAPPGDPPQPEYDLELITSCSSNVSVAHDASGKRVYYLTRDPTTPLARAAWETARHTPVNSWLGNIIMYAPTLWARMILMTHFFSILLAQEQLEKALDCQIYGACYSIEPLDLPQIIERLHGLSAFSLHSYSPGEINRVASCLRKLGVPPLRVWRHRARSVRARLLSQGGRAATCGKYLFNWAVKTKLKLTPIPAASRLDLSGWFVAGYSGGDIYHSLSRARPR
T1 sequence (P27958 2421-2990, stated change not applied): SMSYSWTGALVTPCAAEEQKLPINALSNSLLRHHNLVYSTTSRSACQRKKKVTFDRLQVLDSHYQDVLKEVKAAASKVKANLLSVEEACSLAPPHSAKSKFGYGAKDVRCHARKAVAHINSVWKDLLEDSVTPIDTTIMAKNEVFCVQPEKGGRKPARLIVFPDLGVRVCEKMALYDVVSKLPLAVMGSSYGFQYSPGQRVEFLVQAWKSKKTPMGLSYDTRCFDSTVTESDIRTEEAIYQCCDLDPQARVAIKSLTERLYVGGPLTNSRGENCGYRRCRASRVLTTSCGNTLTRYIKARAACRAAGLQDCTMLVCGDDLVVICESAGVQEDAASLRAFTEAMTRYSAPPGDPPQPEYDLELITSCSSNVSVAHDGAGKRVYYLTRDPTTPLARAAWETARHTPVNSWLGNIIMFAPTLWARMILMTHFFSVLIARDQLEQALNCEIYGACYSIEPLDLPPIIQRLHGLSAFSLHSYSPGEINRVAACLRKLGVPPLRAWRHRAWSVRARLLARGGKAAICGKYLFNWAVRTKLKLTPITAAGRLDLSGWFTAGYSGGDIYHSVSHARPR

For the compound `CCOC(=O)N(c1ccc(NC(=O)c2cc(N3CCC(=O)NC3=O)cc(C(C)(C)C)c2OC)cc1)S(C)(=O)=O` [IA-L3-1.74, Ethyl 4-(3-tert-butyl-5-(2,4-dioxotetrahydropyrimidin-1(2H)-yl)-2-methoxybenzamido)-phenyl(methylsulfonyl)carbamate], the IC50 in assay [1] (IC50 1a) and in assay [2] was > 1 µM each time.
Regarding `COc1c(C(=O)Nc2ccc(N(C(=O)OCC(C)C)S(C)(=O)=O)cc2)cc(N2CCC(=O)NC2=O)cc1C(C)(C)C` [IA-L3-1.76, Isobutyl 4-(3-tert-butyl-5-(2,4-dioxotetrahydropyrimidin-1(2H)-yl)-2-methoxybenzamido) phenyl(methylsulfonyl)carbamate], the IC50 in assay [1] (IC50 1a) and in assay [2] was > 1 µM in each case.
For `COCCOC(=O)N(c1ccc(NC(=O)c2cc(N3CCC(=O)NC3=O)cc(C(C)(C)C)c2OC)cc1)S(C)(=O)=O` [IA-L3-1.77, 2-methoxyethyl 4-(3-tert-butyl-5-(2,4-dioxotetrahydropyrimidin-1(2H)-yl)-2-methoxybenzamido)phenyl(methylsulfonyl)carbamate], the IC50 in assay [1] (IC50 1a) and in assay [2] was > 1 µM each time.
For `COc1c(C(=O)Nc2ccc(S(C)(=O)=O)cc2)cc(N2CCC(=O)NC2=O)cc1C(C)(C)C` [IA-L3-1.78, 3-tert-butyl-5-(2,4-dioxotetrahydropyrimidin-1(2H)-yl)-2-methoxy-N-(4-(methylsulfonyl)phenyl)benzamide], the half-maximal inhibitory concentration (IC50) in assay [1] (IC50 1a) and in assay [2] was > 1 µM throughout.
In the case of `COc1c(C(=O)Nc2ccccc2S(C)(=O)=O)cc(N2CCC(=O)NC2=O)cc1C(C)(C)C` [IA-L3-1.79, 3-tert-butyl-5-(2,4-dioxotetrahydropyrimidin-1(2H)-yl)-2-methoxy-N-(2-(methylsulfonyl)phenyl)benzamide], the IC50 in assay [1] (IC50 1a) and in assay [2] was > 1 µM throughout.
For `COc1c(C(=O)Nc2ccccc2S(N)(=O)=O)cc(N2CCC(=O)NC2=O)cc1C(C)(C)C` [IA-L3-1.80, 3-tert-butyl-5-(2,4-dioxotetrahydropyrimidin-1(2H)-yl)-2-methoxy-N-(2-sulfamoylphenyl)benzamide], the IC50 in assay [1] (IC50 1a) and in assay [2] was > 1 µM each time.
`CCCC(=O)OCN1C(=O)CCN(c2cc(C(=O)Nc3ccc(N(COC(=O)CCC)S(C)(=O)=O)cc3)c(OC)c(C(C)(C)C)c2)C1=O` [IA-L3-1.88, (N-(4-(3-tert-butyl-5-(3-(butyryloxymethyl)-2,4-dioxotetrahydropyrimidin-1(2H)-yl)-2-methoxybenzamido)phenyl)methylsulfonamido)methyl butyrate]: the IC50 in assay [1] (IC50 1a) and in assay [2] was > 1 µM in each case.
Turning to `COc1c(C(=O)Nc2ccc(N(S(C)(=O)=O)S(C)(=O)=O)cn2)cc(N2CCC(=O)NC2=O)cc1C(C)(C)C` [IA-L3-1.101, 3-tert-butyl-5-(2,4-dioxotetrahydropyrimidin-1(2H)-yl)-2-methoxy-N-(5-(N-(methylsulfonyl)methylsulfonamido)pyridin-2-yl)benzamide], the IC50 in assay [1] (IC50 1a) and in assay [2] was > 1 µM in each case.
Turning to `C=CCN(c1ccc(NC(=O)c2cc(N3CCC(=O)NC3=O)cc(C(C)(C)C)c2OC)cc1)S(C)(=O)=O` [IA-L3-1.108, N-(4-(N-allylmethylsulfonamido)phenyl)-3-tert-butyl-5-(2,4-dioxotetrahydropyrimidin-1(2H)-yl)-2-methoxybenzamide], the IC50 in assay [1] (IC50 1a) and in assay [2] was > 1 µM each time.
Take `CS(=O)(=O)Nc1ccc(NC(=O)c2cc(N3CCC(=O)NC3=O)ccc2O)cc1` [IA-L3-1.114, 5-(2,4-dioxotetrahydropyrimidin-1(2H)-yl)-2-hydroxy-N-(4-(methylsulfonamido)phenyl)benzamide]: the IC50 in assay [1] (IC50 1a) and in assay [2] was > 1 µM each time.
With `COc1c(C(=O)Nc2ccc(N(COC(=O)C(C)(C)C)S(C)(=O)=O)cc2)cc(N2CCC(=O)N(COC(=O)C(C)(C)C)C2=O)cc1C(C)(C)C` [IA-L3-1.116, (3-(3-tert-butyl-4-methoxy-5-(4-(N-(pivaloyloxymethyl)methylsulfonamido)phenylcarbamoyl)phenyl)-2,6-dioxotetrahydropyrimidin-1(2H)-yl)methyl pivalate], the half-inhibitory concentration (IC50) in assay [1] (IC50 1a) and in assay [2] was > 1 µM in each case.
`COc1c(C(=O)Nc2ccc(NS(C)(=O)=O)cc2)cc(N2CCC(=O)N(CC3OCCO3)C2=O)cc1C(C)(C)C` [IA-L3-1.117, 5-(3-((1,3-dioxolan-2-yl)methyl)-2,4-dioxotetrahydropyrimidin-1(2H)-yl)-3-tert-butyl-2-methoxy-N-(4-(methylsulfonamido)phenyl)benzamide]: the IC50 in assay [1] (IC50 1a) and in assay [2] was > 1 µM in each case.
Consider `C=CCN1C(=O)CCN(c2cc(C(=O)Nc3ccc(N(CC=C)S(C)(=O)=O)cc3)c(OC)c(C(C)(C)C)c2)C1=O` [IA-L3-1.118, 5-(3-allyl-2,4-dioxotetrahydropyrimidin-1(2H)-yl)-N-(4-(N-allylmethylsulfonamido)phenyl)-3-tert-butyl-2-methoxybenzamide], for which the IC50 in assay [1] (IC50 1a) and in assay [2] was > 1 µM each time.
Consider `COc1c(C(=O)Nc2ccc3c(c2)CS(=O)(=O)C3)cc(N2CCC(=O)NC2=O)cc1C(C)(C)C` [IA-L3-2.3, 3-tert-butyl-N-(2,2-dioxo-1,3-dihydrobenzo[c]thiophen-5-yl)-5-(2,4-dioxotetrahydropyrimidin-1(2H)-yl)-2-methoxybenzamide], for which the IC50 in assay [1] (IC50 1a) and in assay [2] was > 1 µM in each case.
Consider `CC(C)(C)c1cc(N2CCC(=O)NC2=O)cc(NC(=O)c2ccccc2)c1O` [IA-L4-1.2, N-(3-tert-butyl-5-(2,4-dioxotetrahydropyrimidin-1(2H)-yl)-2-hydroxyphenyl)benzamide], for which the IC50 in assay [1] (IC50 1a) and in assay [2] was > 1 µM each time.
Regarding `CC(C)(C)c1cc(N2CCC(=O)NC2=O)cc(NC(=O)c2ccc([N+](=O)[O-])cc2)c1O` [IA-L4-1.5, N-(3-tert-butyl-5-(2,4-dioxotetrahydropyrimidin-1(2H)-yl)-2-hydroxyphenyl)-4-nitro benzamide], the IC50 in assay [1] (read-out: IC50 1a) is > 1 µM; in assay [2] (HCV polymerase 1b, read-out: IC50 1b), > 1 µM.
`CC(C)(C)c1cc(N2CCC(=O)NC2=O)cc(NC(=O)c2ccc(N)cc2)c1O` [IA-L4-1.6, 4-amino-N-(3-tert-butyl-5-(2,4-dioxotetrahydropyrimidin-1(2H)-yl)-2-hydroxyphenyl)benzamide]: the IC50 in assay [1] (IC50 1a) and in assay [2] was > 1 µM each time.
On to `COc1c(NC(=O)c2ccc(CS(C)(=O)=O)cc2)cc(N2CCC(=O)NC2=O)cc1C(C)(C)C` [IA-L4-1.10, N-(3-tert-butyl-5-(2,4-dioxotetrahydropyrimidin-1(2H)-yl)-2-methoxyphenyl)-4-(methylsulfonylmethyl)benzamide], for which the IC50 in assay [1] (IC50 1a) and in assay [2] was > 1 µM throughout.
Consider `CC(C)(C)OC(=O)NC1CCN(Cc2cc(N3CCC(=O)NC3=O)cc(C(C)(C)C)c2O)CC1` [IA-L5-1-1.1, {1-[3-tert-butyl-5-(2,4-dioxo-tetrahydro-pyrimidin-1-yl)-2-hydroxy-benzyl]-piperidin-4-yl}-carbamic acid tert-butyl ester], for which the IC50 in assay [1] (IC50 1a) and in assay [2] was > 1 µM each time.
As for `CC(C)(C)c1cc(N2CCC(=O)NC2=O)cc(CN2CCCC(CNS(C)(=O)=O)C2)c1O` (stereo not shown) [IA-L5-1-1.2, N-{1-[3-tert-butyl-5-(2,4-dioxo-tetrahydro-pyrimidin-1-yl)-2-hydroxy-benzyl]-piperidin-3-ylmethyl}-methanesulfonamide], the IC50 in assay [1] (IC50 1a) and in assay [2] was > 1 µM throughout.
